From article PMC6357153 (Viruses, 2019)
≈ marks a conversion by molar mass, not a printed value.

Assay: physchem

| Compound | solubility (pH 7.2, aqueous buffer) | solubility (water) |
| --- | --- | --- |
| CC[C@H](C)[C@H](NC(=O)[C@H](Cc1ccc(O)cc1)NC(=O)[C@H](CO)NC(=O)[C@H](CC(=O)O)NC(=O)[C@H](CC(N)=O)NC(=O)[C@H](CC(C)C)NC(=O)[C@H](CCC(N)=O)NC(=O)[C@H](CCCCN)NC(=O)[C@@H](NC(=O)[C@@H](NC(=O)[C@H](CCC(=O)O)NC(=O)[C@H](CCC(N)=O)NC(=O)[C@H](CC(C)C)NC(=O)[C@H](CCSC)NC(=O)[C@H](C)NC(=O)[C@H](CCSC)NC(=O)[C@H](CCC(=O)O)NC(=O)[C@H](CC(=O)O)NC(=O)[C@H](CO)NC(=O)[C@H](CC(C)C)NC(=O)[C@H](CC(=O)O)NC(=O)[C@H](CC(C)C)NC(=O)[C@H](CC(C)C)NC(=O)[C@@H](NC(=O)[C@@H](NC(=O)[C@H](CC(N)=O)NC(=O)[C@@H](NC(=O)[C@H](CCCCN)NC(=O)[C@H](CO)NC(=O)[C@@H](NC(=O)[C@H](CCC(=O)O)NC(=O)[C@H](C)NC(=O)[C@H](Cc1ccccc1)NC(=O)[C@H](CC(N)=O)NC(=O)[C@@H]1CCCN1C(=O)CN)[C@@H](C)CC)[C@@H](C)CC)[C@@H](C)O)[C@@H](C)O)C(C)C)C(C)C)C(=O)O [HKU4-HR2P1] | 1570 µM (≈ 6340 µg/mL) | 651 µM (≈ 2630 µg/mL) |
| CC[C@H](C)[C@H](NC(=O)[C@H](Cc1ccc(O)cc1)NC(=O)[C@H](CO)NC(=O)[C@H](CC(=O)O)NC(=O)[C@H](CC(N)=O)NC(=O)[C@H](CC(C)C)NC(=O)[C@H](CCC(N)=O)NC(=O)[C@H](CCCCN)NC(=O)[C@@H](NC(=O)[C@@H](NC(=O)[C@H](CCC(=O)O)NC(=O)[C@H](CCC(N)=O)NC(=O)[C@H](CC(C)C)NC(=O)[C@H](CCSC)NC(=O)[C@H](C)NC(=O)[C@H](CCSC)NC(=O)[C@H](CCC(=O)O)NC(=O)[C@H](CC(=O)O)NC(=O)[C@H](CO)NC(=O)[C@H](CC(C)C)NC(=O)[C@H](CC(=O)O)NC(=O)[C@H](CC(C)C)NC(=O)[C@H](CC(C)C)NC(=O)[C@@H](NC(=O)[C@@H](NC(=O)[C@H](CC(N)=O)NC(=O)[C@@H](NC(=O)[C@H](CCCCN)NC(=O)[C@H](CO)NC(=O)[C@@H](NC(=O)[C@@H](N)CCC(=O)O)[C@@H](C)CC)[C@@H](C)CC)[C@@H](C)O)[C@@H](C)O)C(C)C)C(C)C)C(=O)N[C@@H](CC(=O)O)C(=O)N[C@@H](CC(C)C)C(=O)N[C@@H](CCCCN)C(=O)N[C@@H](CCC(=O)O)C(=O)N[C@@H](CC(C)C)C(=O)O [HKU4-HR2P2] | 2920 µM (≈ 12100 µg/mL) | 150 µM (≈ 623 µg/mL) |
| CC[C@H](C)[C@H](NC(=O)[C@H](Cc1ccc(O)cc1)NC(=O)[C@H](CO)NC(=O)[C@H](CC(=O)O)NC(=O)[C@H](CC(N)=O)NC(=O)[C@H](CC(C)C)NC(=O)[C@H](CCC(N)=O)NC(=O)[C@H](CCCCN)NC(=O)[C@@H](NC(=O)[C@@H](NC(=O)[C@H](CCC(=O)O)NC(=O)[C@H](CCC(N)=O)NC(=O)[C@H](CC(C)C)NC(=O)[C@H](CCSC)NC(=O)[C@H](C)NC(=O)[C@H](CCSC)NC(=O)[C@H](CCC(=O)O)NC(=O)[C@H](CC(=O)O)NC(=O)[C@H](CO)NC(=O)[C@H](CC(C)C)NC(=O)[C@H](CC(=O)O)NC(=O)[C@@H](N)CC(C)C)C(C)C)C(C)C)C(=O)N[C@@H](CC(=O)O)C(=O)N[C@@H](CC(C)C)C(=O)N[C@@H](CCCCN)C(=O)N[C@@H](CCC(=O)O)C(=O)N[C@@H](CC(C)C)C(=O)NCC(=O)N[C@@H](CC(N)=O)C(=O)N[C@@H](Cc1ccc(O)cc1)C(=O)N[C@H](C(=O)N[C@@H](Cc1ccc(O)cc1)C(=O)N[C@@H](Cc1ccc(O)cc1)C(=O)N[C@@H](CC(N)=O)C(=O)N[C@@H](CCCCN)C(=O)N[C@@H](Cc1c[nH]c2ccccc12)C(=O)O)[C@@H](C)O [HKU4-HR2P3] | 118 µM (≈ 513 µg/mL) | 1670 µM (≈ 7270 µg/mL) |
| CC[C@H](C)[C@H](NC(=O)[C@H](Cc1ccc(O)cc1)NC(=O)[C@H](CO)NC(=O)[C@H](CCC(=O)O)NC(=O)[C@H](CC(N)=O)NC(=O)[C@H](CC(C)C)NC(=O)[C@H](C)NC(=O)[C@H](CCCCN)NC(=O)[C@@H](NC(=O)[C@@H](NC(=O)[C@H](CCC(N)=O)NC(=O)[C@H](CCC(N)=O)NC(=O)[C@H](CC(C)C)NC(=O)[C@H](CO)NC(=O)[C@H](CC(C)C)NC(=O)[C@H](CCSC)NC(=O)[C@H](CCC(=O)O)NC(=O)[C@H](Cc1ccc(O)cc1)NC(=O)[C@@H](NC(=O)[C@H](CC(C)C)NC(=O)[C@H](CC(=O)O)NC(=O)[C@H](CC(C)C)NC(=O)[C@H](CC(C)C)NC(=O)[C@@H](NC(=O)[C@@H](NC(=O)[C@H](CC(N)=O)NC(=O)[C@@H](NC(=O)[C@H](CCC(N)=O)NC(=O)[C@@H](NC(=O)[C@H](CC(C)C)NC(=O)[C@@H](N)CO)[C@@H](C)O)[C@@H](C)CC)[C@@H](C)O)[C@@H](C)O)[C@@H](C)O)C(C)C)C(C)C)C(=O)N[C@@H](CC(=O)O)C(=O)N[C@@H](CC(C)C)C(=O)N[C@@H](CCCCN)C(=O)N[C@@H](CCC(=O)O)C(=O)N[C@@H](CC(C)C)C(=O)O [MERS-HR2P, reference compound] | 105 µM (≈ 435 µg/mL) | 29 µM (≈ 120 µg/mL) |
